What was measured:
[1] = target: T1, Retinoic acid receptor gamma (Homo sapiens, UniProt P13631); experiment: Compound was tested for functional activity in CV-1 cells transfected with an expression vector for retinoic acid receptor gamma using transactivation assay; assay type: cell-based
T1 sequence (P13631 whole entry): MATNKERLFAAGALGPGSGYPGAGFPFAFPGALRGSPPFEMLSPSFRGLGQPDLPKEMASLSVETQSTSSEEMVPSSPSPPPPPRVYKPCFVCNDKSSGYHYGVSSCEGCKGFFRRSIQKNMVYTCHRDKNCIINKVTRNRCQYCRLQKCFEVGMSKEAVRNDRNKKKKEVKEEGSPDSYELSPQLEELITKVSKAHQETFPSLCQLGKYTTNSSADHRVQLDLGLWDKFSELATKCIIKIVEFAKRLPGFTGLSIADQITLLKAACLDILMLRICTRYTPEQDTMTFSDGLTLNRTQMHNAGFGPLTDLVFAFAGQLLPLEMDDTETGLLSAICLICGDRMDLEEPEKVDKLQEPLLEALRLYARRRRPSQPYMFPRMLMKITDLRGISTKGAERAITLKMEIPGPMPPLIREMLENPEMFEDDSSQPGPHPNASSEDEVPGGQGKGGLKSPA

[2] = target: T2, Retinoic acid receptor alpha (Homo sapiens, UniProt P10276); experiment: Compound was tested for functional activity in CV-1 cells transfected with an expression vector for retinoic acid receptor alpha using transactivation assay; assay type: cell-based
T2 sequence (P10276 whole entry): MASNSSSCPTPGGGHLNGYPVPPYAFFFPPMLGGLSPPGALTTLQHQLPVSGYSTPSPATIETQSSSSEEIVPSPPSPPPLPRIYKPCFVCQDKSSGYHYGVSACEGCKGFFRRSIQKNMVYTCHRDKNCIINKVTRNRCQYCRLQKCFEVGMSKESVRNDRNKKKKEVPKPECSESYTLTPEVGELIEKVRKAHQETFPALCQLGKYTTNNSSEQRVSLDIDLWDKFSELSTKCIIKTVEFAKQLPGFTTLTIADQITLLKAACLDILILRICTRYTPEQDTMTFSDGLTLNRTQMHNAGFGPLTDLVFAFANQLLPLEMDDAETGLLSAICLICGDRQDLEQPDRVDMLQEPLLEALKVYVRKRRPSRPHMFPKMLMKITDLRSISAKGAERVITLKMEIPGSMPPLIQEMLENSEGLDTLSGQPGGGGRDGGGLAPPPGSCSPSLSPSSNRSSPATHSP

[3] = target: T3, Retinoic acid receptor RXR-gamma (Homo sapiens, UniProt P48443); experiment: Compound was tested for functional activity in CV-1 cells transfected with an expression vector for retinoid X receptor gamma using transactivation assay; assay type: cell-based
T3 sequence (P48443 whole entry): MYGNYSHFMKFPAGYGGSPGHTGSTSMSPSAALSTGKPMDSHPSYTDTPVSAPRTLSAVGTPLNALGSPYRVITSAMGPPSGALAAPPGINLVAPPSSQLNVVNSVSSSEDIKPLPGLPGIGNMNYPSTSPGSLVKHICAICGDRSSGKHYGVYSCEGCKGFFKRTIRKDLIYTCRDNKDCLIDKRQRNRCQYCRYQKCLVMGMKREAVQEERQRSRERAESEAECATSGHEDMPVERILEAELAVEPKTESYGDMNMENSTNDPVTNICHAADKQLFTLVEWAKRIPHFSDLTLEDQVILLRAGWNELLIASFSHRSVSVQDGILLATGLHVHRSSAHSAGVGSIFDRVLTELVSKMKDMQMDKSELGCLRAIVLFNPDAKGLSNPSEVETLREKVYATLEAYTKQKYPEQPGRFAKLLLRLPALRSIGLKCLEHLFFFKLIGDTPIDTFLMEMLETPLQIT

[4] = target: T4, Retinoic acid receptor beta (Homo sapiens, UniProt P10826); experiment: Compound was tested for functional activity in CV-1 cells transfected with an expression vector for retinoic acid receptor beta using transactivation assay; assay type: cell-based
T4 sequence (P10826 whole entry): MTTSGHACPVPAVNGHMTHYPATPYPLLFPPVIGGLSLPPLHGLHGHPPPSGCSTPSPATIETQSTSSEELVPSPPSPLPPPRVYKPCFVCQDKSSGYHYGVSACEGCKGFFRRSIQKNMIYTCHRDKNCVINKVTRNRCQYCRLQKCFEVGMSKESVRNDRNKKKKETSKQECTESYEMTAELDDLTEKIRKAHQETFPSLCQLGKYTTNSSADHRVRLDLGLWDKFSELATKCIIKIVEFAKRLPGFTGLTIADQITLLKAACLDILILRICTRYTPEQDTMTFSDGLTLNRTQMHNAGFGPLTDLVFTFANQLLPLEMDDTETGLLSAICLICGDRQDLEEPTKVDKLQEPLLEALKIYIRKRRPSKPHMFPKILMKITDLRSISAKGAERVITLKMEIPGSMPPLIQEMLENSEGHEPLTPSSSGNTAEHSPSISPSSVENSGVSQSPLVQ

[5] = target: T5, Retinoic acid receptor RXR-alpha (Homo sapiens, UniProt P19793); experiment: Compound was tested for binding affinity against retinoid X receptor using 5 nM of [3H]-9-cis-RA as a radioligand in baculovirus expressed receptor
T5 sequence (P19793 whole entry): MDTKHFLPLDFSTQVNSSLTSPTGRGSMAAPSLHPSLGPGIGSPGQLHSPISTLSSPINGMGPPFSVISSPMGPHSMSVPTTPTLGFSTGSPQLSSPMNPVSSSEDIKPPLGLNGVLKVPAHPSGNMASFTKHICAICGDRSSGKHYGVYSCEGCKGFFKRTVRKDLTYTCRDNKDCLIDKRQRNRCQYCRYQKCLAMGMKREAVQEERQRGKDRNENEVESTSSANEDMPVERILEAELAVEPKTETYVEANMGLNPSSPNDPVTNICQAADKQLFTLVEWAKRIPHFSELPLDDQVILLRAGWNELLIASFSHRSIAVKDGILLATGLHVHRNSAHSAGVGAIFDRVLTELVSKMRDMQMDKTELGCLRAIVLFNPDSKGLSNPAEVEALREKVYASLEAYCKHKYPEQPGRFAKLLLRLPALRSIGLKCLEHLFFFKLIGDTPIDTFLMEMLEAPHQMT

[6] = target: T3, Retinoic acid receptor RXR-gamma; experiment: (§1) Compound was tested for binding affinity against retinoid X receptor using 5 nM of [3H]9-cis-RA as a radioligand in baculovirus expressed receptor
[7] = target: T6, Retinoic acid receptor RXR-beta (Homo sapiens, UniProt P28702); experiment: as §1
T6 sequence (P28702 whole entry): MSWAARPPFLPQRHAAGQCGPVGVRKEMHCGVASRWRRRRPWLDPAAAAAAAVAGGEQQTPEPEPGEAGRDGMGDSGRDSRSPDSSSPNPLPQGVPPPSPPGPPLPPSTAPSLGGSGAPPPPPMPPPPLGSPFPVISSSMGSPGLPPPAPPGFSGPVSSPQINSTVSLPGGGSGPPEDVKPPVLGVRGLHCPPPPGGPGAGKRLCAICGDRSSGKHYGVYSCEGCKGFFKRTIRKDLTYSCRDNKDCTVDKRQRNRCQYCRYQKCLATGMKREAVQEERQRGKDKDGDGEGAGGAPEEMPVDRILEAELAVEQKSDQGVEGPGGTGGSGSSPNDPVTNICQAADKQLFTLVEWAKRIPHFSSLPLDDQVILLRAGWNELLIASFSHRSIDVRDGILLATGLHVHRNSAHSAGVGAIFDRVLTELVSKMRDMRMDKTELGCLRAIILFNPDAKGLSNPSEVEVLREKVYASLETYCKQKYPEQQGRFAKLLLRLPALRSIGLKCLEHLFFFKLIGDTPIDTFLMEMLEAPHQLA

[8] = target: T6, Retinoic acid receptor RXR-beta; experiment: Compound was tested for functional activity in CV-1 cells transfected with an expression vector for retinoid X receptor beta using transactivation assay; assay type: cell-based
[9] = target: T5, Retinoic acid receptor RXR-alpha; experiment: Compound was tested for functional activity in CV-1 cells transfected with an expression vector for retinoid X receptor alpha using transactivation assay; assay type: cell-based
[10] = target: T2, Retinoic acid receptor alpha; experiment: (§2) Compound was tested for binding affinity against retinoic acid receptor using 5 nM of [3H]RA as a radioligand in baculovirus expressed receptor
[11] = target: T1, Retinoic acid receptor gamma; experiment: as §2
[12] = target: T4, Retinoic acid receptor beta; experiment: as §2

Row | EC50 [1] [µM] | EC50 [2] [µM] | EC50 [3] [µM] | EC50 [4] [µM] | Kd [5] [µM] | Kd [6] [µM] | Kd [7] [µM] | EC50 [8] [µM] | EC50 [9] [µM] | Kd [10] [µM] | Kd [11] [µM] | Kd [12] [µM] | Structure (SMILES)
1 | > 1 | > 1 | > 1 | > 1 | > 1 | > 1 | > 1 | > 1 | > 1 | > 1 | > 1 | > 1 | CC(=CC(=O)O)/C=C/C1CC1(C)c1cc2c(cc1C)C(C)(C)CCC2(C)C (centres undefined)
2 | > 1 | > 1 | 0.071 | > 1 | 0.071 | 0.042 | 0.056 | 0.1 | 0.13 | > 1 | > 1 | > 1 | CC(/C=C/C1CC1(C)c1cc2c(cc1C)C(C)(C)CCC2(C)C)=C\C(=O)O (centres undefined)
